Reference: patent US20150368236A1, “2-(PYRIDIN-3-YL)-5-HETARYL-THIAZOLE COMPOUNDS CARRYING AN IMINE OR IMINE-DERIVED SUBSTITUENT FOR COMBATING INVERTEBRATE PESTS” (BASF SE, priority 2012, published 2015)

Key:
Test in all cases: whole plant or invertebrate
Assay type in all cases: in vivo
[1] = test system: vetch aphid (Megoura viciae); settings: foliar, 120 h, sprayed broad bean leaf disks, adult aphids, 5 days, read-out: mortality in comparison with untreated controls
Experimental: For evaluating control of vetch aphid (Megoura viciae) through contact or systemic means the test unit consisted of 24-well-microtiter plates containing broad bean leaf disks.
The compounds were formulated using a solution containing 75% v/v water and 25% v/v DMSO. Different concentrations of formulated compounds were sprayed onto the leaf disks at 2.5 μl, using a custom built micro atomizer, at two replications.
After application, the leaf disks were air-dried and 5 to 8 adult aphids were placed on the leaf disks inside the microtiter plate wells. The aphids were then allowed to suck on the treated leaf disks and were incubated at about 23±1° C. and about 50±5% relative humidity for 5 days. Aphid mortality and fecundity were then visually assessed.

[2] = test system: Cowpea Aphid (Aphis craccivora); settings: colonized cowpea plants sprayed, population reduction assessed after 24, 72 and 120 hours, read-out: mortality in comparison with untreated controls
Experimental: The active compound was dissolved at the desired concentration in a mixture of 1:1 (vol:vol) distilled water:acetone. The test solution was prepared at the day of use. Potted cowpea plants colonized with approximately 100 to 150 aphids of various stages were sprayed after the pest population had been recorded. Population reduction was assessed after 24, 72, and 120 hours.

[3] = test system: green peach aphid (Myzus persicae); settings: 72 h, in aphid diet under artificial membrane, adult aphids, 3 days, read-out: mortality in comparison with untreated controls
Text: For evaluating control of green peach aphid (Myzus persicae) through systemic means the test unit consisted of 96-well-microtiter plates containing liquid artificial diet under an artificial membrane.
The compounds were formulated using a solution containing 75% v/v water and 25% v/v DMSO. Different concentrations of formulated compounds were pipetted into the aphid diet, using a custom built pipetter, at two replications.
After application, 5 to 8 adult aphids were placed on the artificial membrane inside the microtiter plate wells. The aphids were then allowed to suck on the treated aphid diet and were incubated at about 23±1° C. and about 50±5% relative humidity for 3 days. Aphid mortality and fecundity was then visually assessed.

[4] = test system: Cotton Aphid (Aphis gossypii); settings: 120 h, infested cotton plants sprayed, after 5 days, read-out: mortality in comparison with untreated controls
Experimental: The active compounds were formulated in cyclohexanone as a 10′ 000 ppm solution supplied in 1.3 ml ABgene® tubes. These tubes were inserted into an automated electrostatic sprayer equipped with an atomizing nozzle and they served as stock solutions for which lower dilutions were made in 1:1 (vol:vol) water:aceton. A nonionic surfactant (Kinetic®) was included in the solution at a volume of 0.01% (v/v).
Cotton plants at the cotyledon stage were infested with aphids prior to treatment by placing a heavily infested leaf from the main aphid colony on top of each cotyledon. Aphids were allowed to transfer overnight to accomplish an infestation of 80-100 aphids per plant and the host leaf was removed. The infested plants were then sprayed by an automated electrostatic plant sprayer equipped with an atomizing spray nozzle. The plants were dried in the sprayer fume hood, removed from the sprayer, and then maintained in a growth room under fluorescent lighting in a 24-hr photoperiod at 25° C. and 20-40% relative humidity. Aphid mortality on the treated plants, relative to mortality on untreated control plants, was determined after 5 days.

[5] = test system: Silverleaf Whitefly (Bemisia Argentifolii); settings: 72 h, sprayed cotton plants, whitefly adults, 3 days after treatment, read-out: mortality in comparison with untreated controls
Experimental: The active compounds were formulated in cyclohexanone as a 10,000 ppm solution supplied in 1.3 ml ABgene® tubes. These tubes were inserted into an automated electrostatic sprayer equipped with an atomizing nozzle and they served as stock solutions for which lower dilutions were made in 1:1 (vol:vol) water:aceton. A nonionic surfactant (Kinetic®) was included in the solution at a volume of 0.01% (v/v).
Cotton plants at the cotyledon stage (one plant per pot) were sprayed by an automated electrostatic plant sprayer equipped with an atomizing spray nozzle. The plants were dried in the sprayer fume hood and then removed from the sprayer. Each pot was placed into a plastic cup and 10 to 12 whitefly adults (approximately 3 to 5 days old) were introduced. The insects were collected using an aspirator and 0.6 cm, nontoxic Tygon® tubing (R-3603) connected to a barrier pipette tip. The tip, containing the collected insects, was then gently inserted into the soil containing the treated plant, allowing insects to crawl out of the tip to reach the foliage for feeding. Cups were covered with a reusable screened lid (150-micron mesh polyester screen PeCap from Tetko, Inc.). […] Mortality was assessed 3 days after treatment, compared to untreated control plants.

C(=NOc1ccccc1)c1cccc(-c2cnc(-c3cccnc3)s2)n1 [Compound 1-10, 6-(2-Pyridin-3-yl-thiazol-5-yl)-pyridine-2-carbaldehyde-O-phenyloxime]
≥ 75%: mortality at 800 ppm [1] | mortality at 300 ppm [2]

CON=Cc1cccc(-c2cnc(-c3cccnc3)s2)n1 [Compound 1-1, 6-(2-Pyridin-3-yl-thiazol-5-yl)-pyridine-2-carbaldehyde-O-methyloxime]
≥ 75%: mortality at 800 ppm [3] | mortality at 300 ppm [4] | mortality at 800 ppm [1] | mortality at 300 ppm [2] | mortality at 300 ppm [5]
